target: NR2B-subtype NMDA receptors (Rattus norvegicus (Rat), UniProt P35439+Q00960); experiment: Radioligand binding assay (3H Ro 25-6981 competition, forebrain membranes); conditions: 3H Ro 25-6981 (4 nM), read-out: NR2B Binding Ki
In short: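 Rat forebrain membranes competed against [3H]Ro 25-6981 for 1 hr at room temperature, then filtered onto PEI-treated GF/B plates and counted by scintillation. CPM converted to % inhibition, concentration-response curves fitted, Ki derived from at least two experiments.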

Sequence of NR2B-subtype NMDA receptors (Q00960 27-1482, other chains not shown): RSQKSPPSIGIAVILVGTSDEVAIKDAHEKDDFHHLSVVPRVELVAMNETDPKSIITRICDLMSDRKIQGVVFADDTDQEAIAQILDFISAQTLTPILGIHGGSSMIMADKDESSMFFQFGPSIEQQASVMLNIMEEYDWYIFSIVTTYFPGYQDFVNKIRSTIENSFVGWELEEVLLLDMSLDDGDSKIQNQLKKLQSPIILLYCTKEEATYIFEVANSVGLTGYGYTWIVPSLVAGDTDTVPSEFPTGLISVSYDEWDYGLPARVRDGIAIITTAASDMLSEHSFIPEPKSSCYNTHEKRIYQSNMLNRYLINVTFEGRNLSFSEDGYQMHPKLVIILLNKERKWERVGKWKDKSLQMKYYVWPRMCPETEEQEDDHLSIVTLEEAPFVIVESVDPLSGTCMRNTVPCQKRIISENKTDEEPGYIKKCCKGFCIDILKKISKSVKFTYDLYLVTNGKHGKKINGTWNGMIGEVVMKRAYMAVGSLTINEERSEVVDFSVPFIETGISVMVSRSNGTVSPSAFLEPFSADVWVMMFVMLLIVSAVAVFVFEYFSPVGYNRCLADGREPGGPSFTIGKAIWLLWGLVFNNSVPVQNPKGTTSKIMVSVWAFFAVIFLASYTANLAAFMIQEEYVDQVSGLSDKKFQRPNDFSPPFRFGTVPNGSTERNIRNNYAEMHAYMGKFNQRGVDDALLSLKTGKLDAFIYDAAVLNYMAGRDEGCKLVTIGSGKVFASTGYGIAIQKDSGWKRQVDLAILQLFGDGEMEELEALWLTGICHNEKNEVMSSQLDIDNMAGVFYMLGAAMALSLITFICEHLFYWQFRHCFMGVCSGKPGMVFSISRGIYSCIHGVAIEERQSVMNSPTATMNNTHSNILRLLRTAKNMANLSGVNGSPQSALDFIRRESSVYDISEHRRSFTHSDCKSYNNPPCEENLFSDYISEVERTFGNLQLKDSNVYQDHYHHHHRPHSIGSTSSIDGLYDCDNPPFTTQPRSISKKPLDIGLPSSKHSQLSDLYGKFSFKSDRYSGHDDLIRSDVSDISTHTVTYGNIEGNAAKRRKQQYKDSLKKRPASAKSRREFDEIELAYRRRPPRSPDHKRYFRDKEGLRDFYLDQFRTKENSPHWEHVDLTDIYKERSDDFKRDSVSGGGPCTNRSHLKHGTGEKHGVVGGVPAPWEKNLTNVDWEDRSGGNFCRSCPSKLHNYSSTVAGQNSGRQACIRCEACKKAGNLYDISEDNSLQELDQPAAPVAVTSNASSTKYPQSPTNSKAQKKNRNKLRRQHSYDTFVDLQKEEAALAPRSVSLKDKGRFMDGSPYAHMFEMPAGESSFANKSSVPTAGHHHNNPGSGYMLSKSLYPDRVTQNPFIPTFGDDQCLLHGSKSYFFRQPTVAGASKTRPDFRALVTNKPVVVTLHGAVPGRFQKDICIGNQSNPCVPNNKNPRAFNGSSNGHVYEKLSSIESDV

Row | Structure (SMILES) | Ki [nM]
1 | O=C1C(N2CC[C@@H](c3ccc(O)cc3)[C@H](F)C2)CCN1Cc1ccc(OC(F)F)cc1 (stereo partly drawn) [Example 61, 1-(4-(Difluoromethoxy)benzyl)-3-((3S,4S)-3-fluoro-4-(4-hydroxyphenyl)piperidin-1-yl)pyrrolidin-2-one] | 46
2 | O=C1[C@@H](N2CC[C@@H](c3ccc(O)cc3)[C@H](F)C2)CCN1c1ccc(OC(F)F)c(Cl)c1 [Example 62, (S)-1-(3-Chloro-4-(difluoromethoxy)phenyl)-3-((3S,4S)-3-fluoro-4-(4-hydroxyphenyl)-piperidin-1-yl)pyrrolidin-2-one] | 6.7
3 | O=C1[C@H](N2CC[C@@H](c3ccc(O)cc3)[C@H](F)C2)CCN1c1ccc(OC(F)F)c(Cl)c1 [Example 63, (R)-1-(3-Chloro-4-(difluoromethoxy)phenyl)-3-((3S,4S)-3-fluoro-4-(4-hydroxyphenyl)-piperidin-1-yl)pyrrolidin-2-one] | 10
4 | O=C1[C@@H](N2CC[C@@H](c3ccc(O)cc3)[C@H](F)C2)CCN1Cc1ccc(Cl)cc1 [Example 64, (S)-1-(4-Chlorobenzyl)-3-((3S,4S)-3-fluoro-4-(4-hydroxyphenyl)piperidin-1-yl)pyrrolidin-2-one] | 490
5 | O=C1[C@H](N2CC[C@@H](c3ccc(O)cc3)[C@H](F)C2)CCN1Cc1ccc(Cl)cc1 [Example 65, (R)-1-(4-Chlorobenzyl)-3-((3S,4S)-3-fluoro-4-(4-hydroxyphenyl)piperidin-1-yl)pyrrolidin-2-one] | 3.6
6 | O=C1[C@@H](N2CC[C@@H](c3ccc(O)cc3)[C@H](F)C2)CCN1Cc1ccc(Cl)c(F)c1 [Example 66, (S)-1-(4-Chloro-3-fluorobenzyl)-3-((3S,4S)-3-fluoro-4-(4-hydroxyphenyl)piperidin-1-yl)pyrrolidin-2-one] | 1500
7 | O=C1[C@H](N2CC[C@@H](c3ccc(O)cc3)[C@H](F)C2)CCN1Cc1ccc(Cl)c(F)c1 [Example 67, (R)-1-(4-Chloro-3-fluorobenzyl)-3-((3S,4S)-3-fluoro-4-(4-hydroxyphenyl)piperidin-1-yl)pyrrolidin-2-one] | 6.5
8 | C[C@@H](c1ccccc1)N1CCC(N2CC[C@@H](c3ccc(O)cc3)[C@H](F)C2)C1=O (stereo partly drawn) [Example 68, 3-((3S,4S)-3-Fluoro-4-(4-hydroxyphenyl)piperidin-1-yl)-1-(1-phenylethyl)pyrrolidin-2-one] | 710
9 | O=C1C(N2CC[C@@H](c3ccc(O)cc3)[C@H](F)C2)CCN1Cc1ccc(F)c(F)c1 (stereo partly drawn) [Example 69, 1-(3,4-Difluorobenzyl)-3-((3S,4S)-3-fluoro-4-(4-hydroxyphenyl)piperidin-1-yl)pyrrolidin-2-one] | 34
10 | O=C1C(N2CC[C@@H](c3ccc(O)cc3)[C@H](F)C2)CCN1Cc1ccc(Cl)c(Cl)c1 (stereo partly drawn) [Example 70, 1-(3,4-Dichlorobenzyl)-3-((3S,4S)-3-fluoro-4-(4-hydroxyphenyl)piperidin-1-yl)pyrrolidin-2-one] | 180
11 | O=C1[C@@H](N2CC[C@@H](c3ccc(O)cc3)[C@H](F)C2)CCN1Cc1ccc(C(F)(F)F)cc1 [Example 71, (S)-3-((3S,4S)-3-Fluoro-4-(4-hydroxyphenyl)piperidin-1-yl)-1-(4-(trifluoromethyl)-benzyl)pyrrolidin-2-one] | 560
12 | O=C1[C@H](N2CC[C@@H](c3ccc(O)cc3)[C@H](F)C2)CCN1Cc1ccc(C(F)(F)F)cc1 [Example 72, (R)-3-((3S,4S)-3-Fluoro-4-(4-hydroxyphenyl)piperidin-1-yl)-1-(4-(trifluoromethyl)benzyl)-pyrrolidin-2-one] | 6
13 | O=C1C(N2CC[C@@H](c3ccc(O)cc3)[C@H](F)C2)CCN1Cc1ccc(F)c(Cl)c1 (stereo partly drawn) [Example 73, 1-(3-Chloro-4-fluorobenzyl)-3-((3S,4S)-3-fluoro-4-(4-hydroxyphenyl)piperidin-1-yl)pyrrolidin-2-one] | 330
14 | O=C1[C@@H](N2CC[C@H](c3ccc(O)cc3)[C@@H](F)C2)CCN1Cc1ccccc1 [Example 74, (S)-1-Benzyl-3-((3R,4R)-3-fluoro-4-(4-hydroxyphenyl)piperidin-1-yl)pyrrolidin-2-one] | 680
15 | O=C1[C@H](N2CC[C@H](c3ccc(O)cc3)[C@@H](F)C2)CCN1Cc1ccccc1 [Example 75, (R)-1-Benzyl-3-((3R,4R)-3-fluoro-4-(4-hydroxyphenyl)-piperidin-1-yl)pyrrolidin-2-one] | 8
16 | Cc1ccccc1CN1CCC(N2CC[C@H](c3ccc(O)cc3)[C@@H](F)C2)C1=O (stereo partly drawn) [Example 76, 3-((3R,4R)-3-Fluoro-4-(4-hydroxyphenyl)piperidin-1-yl)-1-(2-methylbenzyl)pyrrolidin-2-one] | 33
17 | Cc1cccc(CN2CCC(N3CC[C@H](c4ccc(O)cc4)[C@@H](F)C3)C2=O)c1 (stereo partly drawn) [Example 77, 3-((3R,4R)-3-Fluoro-4-(4-hydroxyphenyl)piperidin-1-yl)-1-(3-methylbenzyl)pyrrolidin-2-one] | 27
18 | O=C1C(N2CC[C@H](c3ccc(O)cc3)[C@@H](F)C2)CCN1Cc1ccc(OC(F)F)cc1 (stereo partly drawn) [Example 78, 1-(4-(Difluoromethoxy)benzyl)-3-((3R,4R)-3-fluoro-4-(4-hydroxyphenyl)piperidin-1-yl)pyrrolidin-2-one] | 190

Row | Structure (SMILES) | Ki [nM]
19 | O=C1C(N2CC[C@H](c3ccc(O)cc3)[C@@H](F)C2)CCN1c1ccc(OC(F)F)c(Cl)c1 (stereo partly drawn) [Example 79, 1-(3-Chloro-4-(difluoromethoxy)phenyl)-3-((3R,4R)-3-fluoro-4-(4-hydroxyphenyl)-piperidin-1-yl)pyrrolidin-2-one] | 40
20 | O=C1[C@@H](N2CC[C@H](c3ccc(O)cc3)[C@@H](F)C2)CCN1Cc1ccc(Cl)cc1 [Example 80, (S)-1-(4-Chlorobenzyl)-3-((3R,4R)-3-fluoro-4-(4-hydroxyphenyl)piperidin-1-yl)pyrrolidin-2-one] | 560
21 | O=C1[C@H](N2CC[C@H](c3ccc(O)cc3)[C@@H](F)C2)CCN1Cc1ccc(Cl)cc1 [Example 81, (R)-1-(4-Chlorobenzyl)-3-((3R,4R)-3-fluoro-4-(4-hydroxyphenyl)piperidin-1-yl)pyrrolidin-2-one] | 3.8
22 | O=C1[C@@H](N2CC[C@H](c3ccc(O)cc3)[C@@H](F)C2)CCN1Cc1ccc(Cl)c(F)c1 [Example 82, (S)-1-(4-Chloro-3-fluorobenzyl)-3-((3R,4R)-3-fluoro-4-(4-hydroxyphenyl)piperidin-1-yl)pyrrolidin-2-one] | 860
23 | O=C1[C@H](N2CC[C@H](c3ccc(O)cc3)[C@@H](F)C2)CCN1Cc1ccc(Cl)c(F)c1 [Example 83, (R)-1-(4-Chloro-3-fluorobenzyl)-3-((3R,4R)-3-fluoro-4-(4-hydroxyphenyl)piperidin-1-yl)pyrrolidin-2-one] | 5
24 | C[C@@H](c1ccccc1)N1CCC(N2CC[C@H](c3ccc(O)cc3)[C@@H](F)C2)C1=O (stereo partly drawn) [Example 84, 3-((3R,4R)-3-Fluoro-4-(4-hydroxyphenyl)piperidin-1-yl)-1-((S)-1-phenylethyl)pyrrolidin-2-one] | 950
25 | O=C1C(N2CC[C@H](c3ccc(O)cc3)[C@@H](F)C2)CCN1Cc1ccc(F)c(F)c1 (stereo partly drawn) [Example 85, 1-(3,4-Difluorobenzyl)-3-((3R,4R)-3-fluoro-4-(4-hydroxyphenyl)-piperidin-1-yl)pyrrolidin-2-one] | 23
26 | O=C1C(N2CC[C@H](c3ccc(O)cc3)[C@@H](F)C2)CCN1Cc1ccc(Cl)c(Cl)c1 (stereo partly drawn) [Example 86, 1-(3,4-Dichlorobenzyl)-3-((3R,4R)-3-fluoro-4-(4-hydroxyphenyl)-piperidin-1-yl)pyrrolidin-2-one] | 78
27 | O=C1[C@@H](N2CC[C@H](c3ccc(O)cc3)[C@@H](F)C2)CCN1Cc1ccc(C(F)(F)F)cc1 [Example 87, (S)-3-((3R,4R)-3-Fluoro-4-(4-hydroxyphenyl)piperidin-1-yl)-1-(4-(trifluoromethyl)benzyl)-pyrrolidin-2-one] | 540
28 | O=C1[C@H](N2CC[C@H](c3ccc(O)cc3)[C@@H](F)C2)CCN1Cc1ccc(C(F)(F)F)cc1 [Example 88, (R)-3-((3R,4R)-3-Fluoro-4-(4-hydroxyphenyl)piperidin-1-yl)-1-(4-(trifluoromethyl)benzyl)-pyrrolidin-2-one] | 5.3
29 | O=C1C(N2CC[C@H](c3ccc(O)cc3)[C@@H](F)C2)CCN1Cc1ccc(F)c(Cl)c1 (stereo partly drawn) [Example 89, 1-(3-Chloro-4-fluorobenzyl)-3-((3R,4R)-3-fluoro-4-(4-hydroxyphenyl)piperidin-1-yl)pyrrolidin-2-one] | 200
30 | O=C1C(N2CCC(c3ccc(O)cc3)C(F)(F)C2)CCN1c1ccc(OC(F)F)c(Cl)c1 (centres unmarked) [Example 90, 1-(3-Chloro-4-(difluoromethoxy)phenyl)-3-(3,3-difluoro-4-(4-hydroxyphenyl)piperidin-1-yl)pyrrolidin-2-one] | 77
31 | Cc1ccccc1CN1CCC(N2CCC(c3ccc(O)cc3)C(F)(F)C2)C1=O (centres unmarked) [Example 92, 3-(3,3-Difluoro-4-(4-hydroxyphenyl)piperidin-1-yl)-1-(2-methylbenzyl)pyrrolidin-2-one] | 59
32 | Cc1cccc(CN2CCC(N3CCC(c4ccc(O)cc4)C(F)(F)C3)C2=O)c1 (centres unmarked) [Example 93, 3-(3,3-Difluoro-4-(4-hydroxyphenyl)piperidin-1-yl)-1-(3-methylbenzyl)pyrrolidin-2-one] | 67
33 | O=C1C(N2CCC(c3ccc(O)cc3)C(F)(F)C2)CCN1Cc1ccc(OC(F)F)cc1 (centres unmarked) [Example 94, 3-(3,3-Difluoro-4-(4-hydroxyphenyl)piperidin-1-yl)-1-(4-(difluoromethoxy)benzyl)-pyrrolidin-2-one] | 390
34 | O=C1[C@@H](N2CCC(c3ccc(O)cc3)C(F)(F)C2)CCN1Cc1ccc(Cl)cc1 (stereo partly drawn) [Example 95, P-1, (3S)-1-(4-Chlorobenzyl)-3-(3,3-difluoro-4-(4-hydroxyphenyl)piperidin-1-yl)pyrrolidin-2-one] | 54
35 | O=C1[C@H](N2CCC(c3ccc(O)cc3)C(F)(F)C2)CCN1Cc1ccc(Cl)cc1 (stereo partly drawn) [Example 95, P-2, (3R)-1-(4-Chlorobenzyl)-3-(3,3-difluoro-4-(4-hydroxyphenyl)piperidin-1-yl)pyrrolidin-2-one] | 12

— US9221796B2, “Selective NR2B antagonists” (BRISTOL-MYERS SQUIBB COMPANY, priority 2014, dated 2015)
